Entries after “also recorded” stand apart in the source; their conditions may differ.
Columns and labels:
isolated rat heart = assay: Isolated perfused heart model, myocardial ischemia-reperfusion; type: in vivo, Sprague-Dawley rats; conditions: for ischemia-reperfusion-induced myocardial dysfunction (LVSP, dLVP, LVEDP, CPP): ODN 200 μg/rat i.v. with liposomes 4 days before, 30 min ischemia, 30 min reperfusion; for ischemia-reperfusion induced ventricular abnormality (dLVP, CPP, LVEDP): ODN 1 mg/kg i.v. 4 days before, atenolol 2 mg/kg 6 hr before
Method: Male Sprague-Dawley rats weighing 200-250 g were injected intravenously with either AS-ODNs (n=7) or IN-ODNs (n=7) at a dose of 200 μg/rat 4 days before excising the hearts. DOTAP/DOPE liposomes (700 μg/rat) were given along with ODNs.
The hearts were excised rapidly and placed in ice-cold Kreb-Henseleit buffer (mmol/L: NaCl 118, KCl 4.7, KH2PO4 1.2, MgSO4 1.2, CaCl2 1.25, NaHCO3 25, and glucose 11, pH 7.4). Within one min, the hearts were transferred to an isolated perfusion apparatus and perfused via the aorta with oxygen-saturated (95% O2+5% CO2) Kreb-Henseleit buffer kept at 37° C. with the use of a MasterFlex pump (model 7015-21, Cole-Palmer Instrument Co.) according to the modified Langendroff procedure (Yang et al., 1998; Neely and Rovetto, 1975). The heart was placed in a semi-closed circulating water-warmed (37° C.) air chamber, paced atrially with a Medtronic 5320 pacemaker at a rate of 300 bpm, and perfused at a constant flow (5.5-6.0 ml/per min). Coronary perfusion pressure (CPP) was measured via a catheter placed just proximal to the aorta and connected to a Gould Statham P23ID pressure transducer. A latex balloon filled with water and connected to a Gould Statham P23ID pressure transducer was inserted in the left ventricle through the left atrium to measure left ventricular end-diastolic pressure (LVEDP), left ventricular systolic pressure (LVSP), and developed left ventricular pressure (dLVP) (dLVP=LVSP−LVEDP). LVEDP during equilibration was set at 5 to 7 mmHg. All measurements were continuously recorded on a 4-channel record (Astro-Med).
Six hearts from saline-treated rats were continuously perfused with Kreb-Henseleit buffer for 80 min and served as sham control. Hearts from other rats, after 20 min of equilibration, were subjected to 30 min of ischemia followed by 30 min of reperfusion. After completion of the study, hearts were frozen in liquid-nitrogen for β1-AR analysis by binding assay, β1-AR protein analyses by Western blot, β1-AR mRNA analysis by reverse transcription-polymerase chain reaction (RT-PCR™), and measurement of MDA.
The protective effects of β1-AS-ODNs were tested in a rat model of myocardial ischemia-reperfusion. Five groups of SD rats were studied. Sham controls (n=6) were injected with saline and perfused continuously for 80 min without ischemia/reperfusion (I/R). In other groups, hearts were perfused for 20 min and subjected to global ischemia (30 min) followed by reperfusion (30 min). […] AS-ODN+I/R (n=7) or INV-ODN+I/R (n=7) were injected iv. with 1 mg/kg β1-AS-ODN or INV-ODN 4 days before the I/R study was performed.

MDA (lipid peroxidation) = assay: MDA levels in myocardium after ischemia-reperfusion; type: in vivo, Sprague-Dawley rats; conditions: pretreatment before ischemia-reperfusion; vs saline
Method: Malondialdehyde (MDA) levels in myocardium were measured in duplicate by a modification of the method of Ohkawa et al., (1979). Briefly, the ventricular tissues were homogenized. The assay mixture consisted of 0.1 ml of the tissue homogenate, 0.4 ml of 0.9% NaCl, 0.5 ml of 3% sodium dodecylsulfate, 3 ml of TBA (thiobarbituric acid reagent, containing equal parts of 0.8% aqueous thiobarbituric acid and acetic acid) and was heated for 75 min at 95° C. Thereafter, 1 ml cold 0.9% NaCl was added to the mixture, which was cooled and extracted with 5 ml n-butanol. After centrifugation at 3,000 rpm for 15 min, the butanol phase was assayed spectrophotometrically at 532 nm. Tetramethoxypropane (in amounts of 0, 0.1, 0.2, 0.4, 0.8, 1.0 nmole) served as external standard. MDA levels in myocardium were expressed in μmol/g tissue.

β1-AR mRNA = assay: RT-PCR of β1-AR mRNA in myocardium; type: in vivo, Sprague-Dawley rats; conditions: adjusted for GAPDH
Method: Total RNA was isolated from rat myocardium with the single step acid-guanidinum thiocyanate-phenol-chloroform method and quantified (Chomcznski and Sacchi, 1987). One μg of total RNA was reverse transcribed with oligo-dT (Promega) and M-MLV reverse transcriptase (Promega) at 37° C. for one hr. 1.5 μl of RT material was amplified with Taq DNA polymerase (Promega) using a primer pair specific to β1-AR:
PCR™ product was 432 base pairs. For PCR, 35 cycles were used at 95° C. for one minute, 60° C. for one minute, and 72° C. for one min. The RT-PCR™ amplified samples were visualized on 1.8% agarose gels using ethidium bromide. A primer pair of rat GAPDH was used as control:
For PCR™, 35 cycles were used at 95° C. for one min, 60° C. for one min, 72° C. for one min. PCR™ product was 504 base pairs. Relative intensity of bands of interest were analyzed by NSF-300G Scanner (Microtek) (Yang et al., 1998; Li et al., 1999).

[1] = Hematology after repeated injections; type: in vivo, rat (SHR); conditions: for MPV: after repeated administration
Method: Safety profiles including liver transaminases, hematology, immune response and tissue pathology were investigated during three repeated injections of β1-AS-ODNs for extended periods of time.
Hematological parameters were measured after three repeated injections of β1-AS-ODN. There was no change in total leukocyte count (WBC), platelet count, hematocrit and mean platelet volume (MPV) among three groups (Table 6).

| Substance | preserving dLVP after ischemia-reperfusion, comparison with atenolol (isolated rat heart; 200 μg/rat 4 days before) | overall protective effects, comparison with atenolol (isolated rat heart; 1 mg/kg i.v. 4 days before) | restoration of dLVP, comparison with atenolol (isolated rat heart; 1 mg/kg i.v. 4 days before) | ischemia-reperfusion-induced myocardial dysfunction (LVSP, dLVP, LVEDP, CPP) (isolated rat heart) | ischemia-reperfusion induced ventricular abnormality (dLVP, CPP, LVEDP) (isolated rat heart) | increase in MDA levels in the myocardium (MDA (lipid peroxidation)) | increase of mRNA for β1-AR in myocardium (β1-AR mRNA) | MPV [1] | WBC ([1]; rat, in vivo) | hematocrit ([1]; rat, in vivo) | platelet ([1]; rat, in vivo) | total leukocyte count (WBC), platelet count, hematocrit and MPV ([1]; rat, in vivo) |
| --- | --- | --- | --- | --- | --- | --- | --- | --- | --- | --- | --- | --- |
| 5′-CCGCGCCCATGCCGA-3′ (phosphorothioate backbone, further chemistry not given here) [β1-AS-ODN, 15-mer antisense ODN targeted to the AUG start codon of rat β1-AR mRNA] | more effective than atenolol | equivalent to or even better than atenolol | to a greater extent than atenolol | markedly attenuated | beneficial effects; also recorded: markedly attenuated | attenuated the increase | attenuated the increase | 6.93 ± 0.08 fL | 5.48 ± 0.41 10^3/mm^3 | 46.2 ± 0.63% | 685 ± 12 10^3/mm^3 | no change |
| 5′-AGCCGTACCCGCGCC-3′ (phosphorothioate backbone, further chemistry not given here) [Inverted ODN, 15-mer inverted ODN control, reference compound] |  |  |  | no effect | no effect | did not affect | not significantly affected | 7.2 ± 0.20 fL | 5.75 ± 1.15 10^3/mm^3 | 46.0 ± 0.1% | 706 ± 28 10^3/mm^3 |  |

Source: patent publication US6489307B1, “Antisense compositions targeted to β1-adrenoceptor-specific mRNA and methods of use” (University of Florida, priority 1998, dated 2002)
